The test system of one series is RIPK3. On the set-up: method as in Mandal et al., 2014. Conditions: ref Mandal et al., 2014; cited from earlier work.
The subject of another series is HeLa-MLKL (1–190) cells. Put plainly: MLKL polymerization-induced necroptosis in HeLa-MLKL (1-190) cells (AP20187). Type of series: cell-based, human. Particulars: doxycycline 1 μg/ml 24 h, 2 h pretreatment, AP20187 60 nM 24 h. An excerpt: Human colon cancer HT-29 and mouse fibrosarcoma L929 cells were from ATCC. Mouse embryonic fibroblasts (MEF), HT-29 cells stably expressing RIPK3-shRNA and shRNA resistant scramble Flag-tagged RIPK3 (W46), and NIH3T3 cell line stably expressing RIPK3 fused to mutant FK506-binding protein (NIH3T3-RIPK3) were kindly provided by Dr. Xiaodong Wang [National Institute of Biological Sciences (NIBS), Beijing]. HeLa-MLKL (1-190) cell line was a gift from Dr. Zhigao Wang (University of Texas Southwestern Medical Center at Dallas). These cells were cultured in Dulbecco’s modified Eagle’s medium (Hyclone) supplemeted with 10% fetal bovine serum (Invitrogen) and 2 mM L-glutamine (Invitrogen) in a humidified incubator at 37°C and 5% CO2. […]
Cells were seeded in 96-well plates and then treated as indicated. The cell viability was determined by assessment of ATP levels using the CellTiter-Glo Luminescent Cell Viability Assay kit following the manufacture’s instructions (Promega). Luminescence was calculated with SpectraMax i3x (Molecular Devices).
In vitro kinase activity assays using recombinant RIPK3 and RIPK1 were performed as described in the section “Materials and Methods.” Data represent mean value ± standard deviation. […] Cell viability was determined by measuring ATP levels. […] Cell viability was determined by measuring ATP levels. […]

As to `CC(C)S(=O)(=O)c1ccc2nccc(Nc3ccc4scnc4c3)c2c1` [GSK’872], the “induction of on-target apoptosis” value in the series with RIPK3 is given as “able to induce on-target apoptosis”.
On to `COc1nccnc1NS(=O)(=O)c1ccc(NC(=O)/C=C/c2ccc([N+](=O)[O-])s2)cc1` [necrosulfonamide, reference compound], for which the “polymerized MLKL-induced necroptosis” value in the series on HeLa-MLKL (1–190) cells is “blocked”.

The record behind these values is PMC7753040, “Discovery of a Potent RIPK3 Inhibitor for the Amelioration of Necroptosis-Associated Inflammatory Injury” (Frontiers in Cell and Developmental Biology, 2020).
